In PMC5068747, “Using C. elegans Forward and Reverse Genetics to Identify New Compounds with Anthelmintic Activity” (PLoS Neglected Tropical Diseases, 2016):
Read-outs that look alike come from different tables or passages of the source. Blank lines part the entries; values can stand above or below the compound they belong to.

How the values were obtained:
[1] = tested on: C. elegans VC2010 (wild type); experiment: WormScan screen of C. elegans growth, fecundity, motility and mortality; format: in vivo, Caenorhabditis elegans; set-up: normalized WormScan score: dose or concentration left out as unconfirmed
Description: (§1) All compound libraries were stored in 96-well plates, with 80 drugs per plate (columns 1 and 12 left empty). A BioGrid BG600 pinning robot (Digilab / BioRobotics) was used for compound transfer. The robot uses a 96-pin tool (0.7 mm dia.) to transfer a nominal volume of 340 nL of compound. For retesting, compounds were hand pinned from the original library plates to assay plates using a single 0.7 mm dia. pin. The assay plates were 96-well clear flat-bottom microplates containing 2% χ1666 E.coli bacteria in 0.5X Liquid Nematode Growth Media (LNGM) plus cholesterol (Bacteria were mass-grown in rich media, and harvested by centrifugation to produce a thick paste of bacterial cells that was kept frozen at -20°C. Cells were resuspended at 2% W/V in 0.5X LNGM to produce liquid worm food). Using a COPAS Biosort (Union Biometrica), two L4 to young adult stage VC2010 worms were added to each well of the plate in a final volume of 45 μL. After five days of exposure to the compounds, the plates were scanned and the data analyzed. A five day time period was chosen to be able to observe effects over all stages of the life cycle and through at least one round of replication. The initial proof-of-principle primary screen was performed manually using a dissecting microscope. Phenotypes scored included decreased motility, reduced brood size, and/or death as described previously. For high throughput screening of the Chembridge and Maybridge compound libraries we used the program WormScan, which was adapted for screening 96-well flat-bottom LNGM plates. Using WormScan it was possible to screen four 96-well plates at a time. Plates were scanned twice, at a resolution of 1200 dots per inch, 16-bit grayscale, producing a jpeg image. The light intensity produced by the scanner was sufficient to cause negative phototaxis equivalent to a physical stimulus for mortality determination. The time required to scan four 96-well plates using an Epson Perfection V700 Photo Scanner was less than ten minutes. The time to screen a single plate was less than 1.2 minutes, with less than ten seconds between scans.
(§2) WormScan was used to screen for the same phenotypes as in the manual screen (reduced brood size, reduced behavior/motility response and increased mortality). Two sequential scans for each 96-well plate were aligned to a reference region of interest (ROI). Image analysis was based on a difference image score calculated for each ROI. The difference image score (WormScan score) was normalized using a “percent of control” method to derive a normalized WormScan score. […] Wild-type growth in 1% DMSO (Fig 1A) results in a normalized WormScan score of 100. Exposure to 50 nM ivermectin gives a score of 0 (Fig 1C), and complete absence of worms gives a score of 0 (Fig 1D). For the primary screen the WormScan score was calculated using custom macro scripts written for Fiji. For secondary screening and any subsequent studies the WormScan score was calculated using a standalone Java program (See supplemental). Probit regression of mortality was calculated using Mathematica 8.0.

[2] = tested on: C. elegans VC3635 (pink-1 gk3615, D19 resistant); experiment: IC50 on CID 2747322 resistant C. elegans strain VC3635; format: in vivo, Caenorhabditis elegans; conditions: 5 days exposure, 2 L4 per well, three biological replicates
Description: as §1, §2
(§3) A standard ethyl methanesulfonate (EMS) mutagenesis protocol was carried out using VC2010 in order to generate mutants resistant to CID 2747322 exposure. First larval stage (L1) F2 progeny of mutagenized P0s were exposed to CID 2747322 at 200 μM in liquid worm food in 24-well tissue culture plates for five days at room temperature, and two independently isolated resistant lines (VC3614 and VC3615) were identified. […]

[3] = tested on: C. elegans CB193 (unc-29(e193), levamisole resistant); experiment: IC50 on levamisole resistant C. elegans strain; format: in vivo, Caenorhabditis elegans; conditions: 5 days exposure, 2 L4 per well, three biological replicates
[4] = tested on: C. elegans VC3631 (mev-1 gk3613, D19 resistant); experiment: IC50 on CID 2747322 resistant C. elegans strain VC3631; format: in vivo, Caenorhabditis elegans; conditions: 5 days exposure, 2 L4 per well, three biological replicates
Description: as §1, §2, §3

[5] = tested on: C. elegans CB3474 (ben-1(e1880), benomyl resistant); experiment: IC50 on benzimidazole resistant C. elegans strain; format: in vivo, Caenorhabditis elegans; conditions: 5 days exposure, 2 L4 per well, three biological replicates
[6] = tested on: C. elegans RB2119 (acr-23(ok2804), monepantel-resistant); experiment: IC50 on amino-acetonitrile resistant C. elegans strain; format: in vivo, Caenorhabditis elegans; conditions: 5 days exposure, 2 L4 per well, three biological replicates, read-out: IC50, strain RB2119 (amino-acetonitriles)
[7] = tested on: C. elegans DA1316 (avr-14(ad1302); avr-15(vu227); glc-1(pk54), ivermectin resistant); experiment: IC50 on ivermectin resistant C. elegans strain; format: in vivo, Caenorhabditis elegans; conditions: 5 days exposure, 2 L4 per well, three biological replicates
[8] = tested on: Human embryonic kidney (HEK293) cells; experiment: HEK293 viability, MTT colorimetric assay; format: cell-based; conditions: read-out: Mammalian IC50
Description: Potential anthelmintic compounds identified from primary screening were further tested against mammalian cells and yeast to determine whether they had deleterious effects in those organisms. Human embryonic kidney (HEK293) cells were grown in Dulbecco’s Modified Eagle’s Medium (DMEM; Sigma) containing 5% fetal bovine serum (FBS; Sigma) in 96-well plates tissue culture plates. Compounds were added 24h post-plating at 10, 30, 100, or 300 μM final concentrations. Dimethyl sulfoxide (DMSO) was used as a negative control at 0.1%. Cells were treated for 24 or 48 hours, after which time viability was assessed using a 3-(4,5-dimethylthiazol-2-yl)-2,5-diphenyltetrazolium bromide (MTT) colorimetric assay. Percent viability was determined by comparing treatment values to DMSO control values.

[9] = tested on: S. cerevisiae yeast strain BY4743; experiment: Yeast growth rate (OD600) dose titration; format: cell-based; conditions: BY4743, YPD, growth rate reduced by 50%
Description: The S. cerevisiae yeast strain BY4743 (MATa/α his3Δ1/his3Δ1 leu2Δ0/leu2Δ0 LYS2/lys2Δ0 met15Δ0/MET15 ura3Δ0/ura3Δ0) was used for all yeast experiments and was grown using yeast extract peptone dextrose (YPD) media at pH 7 [52]. BY4743 was grown overnight to initial log phase and was then grown with the compound identified in the C. elegans assay. The growth rate was quantified by continuously monitoring the optical density of the liquid yeast growth at OD600. The compound was screened in a dose-titration in YPD as described. The IC50 was the concentration required to reduce the growth rate or Average G value by 50% compared to a vehicle control (2% DMSO).

C. elegans VC2010 [10] = experiment: Manual inspection of growth, brood size, developmental stage and recovery of C. elegans in drug; format: in vivo, Caenorhabditis elegans; conditions: L1s removed from the drug
Description: WormScan is a powerful tool to identify compounds with potential effects on the nematode, but it is still necessary to do manual inspection of wells with few animals to determine details of growth, behavior and fecundity. Wild-type worms grown in 90 μM CID 2747322 have brood sizes reduced by 97%. […] All current classes of anthelmintic have greater specificity towards certain life-stages. It is interesting that when removed from the drug L1s will recover and develop, and generally become fertile adults (See S3 Fig).
Supplementary file pntd.0005058.s002.tiff: S2 Fig Developmental stage of inhibition in C. elegans after CID 2747322 exposure. Ten VC2010 L1 stage C. elegans were sorted into a DMSO control well or 90 μM of CID 2747322. Nematodes were removed from the DMSO control or CID 2747322 after 24/48/72 hours and allowed to recover for 30 minutes on standard agar plates. (TIFF) Click here for additional data file.
Supplementary file pntd.0005058.s003.tiff: S3 Fig Development of C. elegans after removel from CID 2747322. Greater than 50 VC2010 L1 stage C. elegans were sorted into a DMSO control well or 90 μM of CID 2747322. Nematodes were removed from DMSO control or CID 2747322 after 2 days of exposure and left to recovery for 24/48/72 hours. (TIFF) Click here for additional data file.

nematodes = tested on: nematodes; set-up: method as in PMID 10924467; conditions: cited from earlier work
porcine complex II = tested on: porcine complex II; set-up: method as in PMID 26198225; conditions: cited from earlier work
A. suum complex II = tested on: A. suum complex II; set-up: method as in PMID 26198225; conditions: cited from earlier work
C. elegans VC2010 [11] = experiment: Manual phenotyping pilot screen of 3,584 known compounds (CCBN library); format: in vivo, Caenorhabditis elegans; conditions: dissecting microscope, positively confirmed drugs of CCBN library
[12] = Caenorhabditis elegans, 120 h, 5 days exposure, 2 L4 per well, three biological replicates, read-out: IC50, strain VC2010 (wild type)
[13] = 5 days exposure, 2 L4 per well, three biological replicates, read-out: IC50, strain VC2010 (wild type)
[14] = C. elegans, 5 days exposure, read-out: Nematode IC50

IC50 ([2]; Caenorhabditis elegans, 120 h): 118 µM
IC50 ([3]; Caenorhabditis elegans, 120 h): 113 µM
IC50 ([4]; Caenorhabditis elegans, 120 h): 91 µM
IC50 ([5]; Caenorhabditis elegans, 120 h): > 1000 µM
IC50 ([6]; Caenorhabditis elegans, 120 h): 28 µM
IC50 ([7]; Caenorhabditis elegans, 120 h): 59 µM
Compound: c1ccc2[nH]cnc2c1 [Benzimidazole]
IC50 [1, 12]: 61 µM

Compound: FC(F)(F)c1cc(NCc2ccccc2)nc(-c2ccccc2)n1 [CID 796072]
IC50 [1, 13]: 7 µM
greater sensitivity in C. elegans than in other organisms (nematode index) ([1]; C. elegans versus mammalian cells, Table 1): four-fold
IC50 [1, 14]: 7 µM
IC50 [2]: 9 µM
IC50 [8]: 28 µM
IC50 [3]: 3 µM
IC50 [4]: 11 µM
IC50 [9]: > 1000 µM
IC50 [5]: 2 µM
IC50 [6]: 2 µM
IC50 [7]: 8 µM

IC50 [9]: > 1000 µM
Compound: O=C(Nc1ccc(Cl)cc1)Nc1ccc2ncccc2c1 [CID 2823320]
IC50 [1, 14]: 40 µM
IC50 [8]: 45 µM

IC50 [9]: 140 µM
Compound: Cc1nc2c(c3c1[nH]c1ccccc13)C(=O)CC(C)(C)C2 [CID 3254982]
IC50 [1, 14]: 17 µM
IC50 [8]: 37 µM

Compound: C=C(C)C1CC=C(CN(C)C2CCN(C)CC2)CC1 (stereo not drawn) [CID 6456299]
IC50 [1, 14]: > 500 µM
IC50 [8]: 184 µM
IC50 [9]: > 1000 µM

Compound: O=C(NCCc1ncc(C(F)(F)F)cc1Cl)c1ccccc1C(F)(F)F [Fluopyram, reference compound]
IC50 ([1]; Caenorhabditis elegans, 120 h, read-out: Nematode IC50): 0.05 µM
IC50 ([8]; Homo sapiens): 300 µM
outcome after exposure / removal from drug (C. elegans VC2010 [10]): animals are killed
IC50 ([9]; Saccharomyces cerevisiae): > 1000 µM

IC50 ([2]; Caenorhabditis elegans, 120 h): 6 µM
IC50 ([3]; Caenorhabditis elegans, 120 h): > 250 µM
IC50 ([4]; Caenorhabditis elegans, 120 h): 10 µM
IC50 ([5]; Caenorhabditis elegans, 120 h): 2 µM
IC50 ([6]; Caenorhabditis elegans, 120 h): 4 µM
IC50 ([7]; Caenorhabditis elegans, 120 h): 8 µM
Compound: c1ccc([C@H]2CN3CCSC3=N2)cc1 [Levamisole]
IC50 [1, 12]: 4 µM

Compound: CC1(C)SC2C(N)C(=O)N2C1C(=O)O (stereo not drawn) [WACT162]
effect on nematodes (nematodes): only reduces growth

Compound: CC(C)Oc1cccc(NC(=O)c2ccccc2C(F)(F)F)c1 [flutolanil]
IC50 (porcine complex II): 8.61 µM
IC50 (A. suum complex II): 0.0245 µM

Compound: Ivermectin
WormScan Score ([1]; 50 μM, five days exposure, normalized, DMSO control = 100): 0
IC50 [1, 13]: 0.03 µM
IC50 [1, 14]: 0.03 µM
normalized WormScan score ([1]; normalized, DMSO control = 100): 0
IC50 [2]: 0.01 µM
IC50 [8]: 300 µM
IC50 [3]: 0.01 µM
IC50 [4]: 0.01 µM
Worm Reaction in Drug (C. elegans VC2010 [11]): appears dead/paralyzed no progeny
IC50 [9]: > 1000 µM
IC50 [5]: 0.01 µM
IC50 [6]: 0.01 µM
IC50 [7]: 7 µM
